{
  "source": "patent US6136810A",
  "about": "“Pyrido[2,3-D]pyrimidine derivatives and pharmaceutical compositions thereof” (priority 1995, dated 2000)",
  "key": {"[1]": {"target": "type IV phosphodiesterase", "assay": "Type IV phosphodiesterase inhibition activity measuring test (in vitro)", "assay_type": "biochemical", "conditions": "human granulocyte type IV PDE, 1 μM cAMP, 30° C.", "experimental": "The following assay was used for the evaluation of the capability of the compounds of the present invention to inhibit type IV phosphodiesterase.\n1) Physiological saline (200 ml) supplemented with dextran (3%) was added to 500 ml of heparinized peripheral blood of a healthy person and incubated at 37° C. for 40 minutes to effect precipitation of erythrocytes. The supernatant after precipitation of erythrocytes was recovered and centrifuged once, and the resulting precipitate was suspended in buffer A (140 mM NaCl, 5 mM KCl, 5 mM glucose and 10 mM HEPES, pH 7.4), overlaid on a solution for density gradient centrifugation use (Ficoll solution) and then centrifuged at room temperature for 40 minutes at 450×g, thereby separating monocyte fraction and granulocyte fraction. The granulocyte fraction was washed once with buffer B (140 mM NaCl, 5 mM KCl; 1 mM CaCl2, 1 mM MgCl2, 5 mM glucose and 10 mM HEPES, pH 7.4) and suspended in buffer C (20 mM Bis-Tris, 5 mM dithioerythritol, 2 mM EGTA and 50 mM sodium acetate, pH 6.5) containing a protease inhibitor (50 μM phenyl-methyl-sulfonyl-fluoride, 5 μM pepstatin A, 40 μM leupeptin, 20 μM aprotinin or 2 mM benzamidine) and then the cells were disrupted using polytron and sonicator and subjected to ultracentrifugation (4° C., 100,000×g, 60 minutes) to give a soluble fraction.\n2) The thus obtained soluble fraction was applied to a column of 1.6×10 cm packed with Q Sepharose which had been equilibrated with buffer C. Next, the column was washed with 300 ml of buffer C to remove non-absorbed protein. Phosphodiesterase was eluted with 200 ml of buffer C having 0.05 to 1.25 M linear gradient of sodium acetate to collect 40 fractions each containing 5.0 ml eluate. Each fraction was checked for cAMP- and cGMP-metabolizing phosphodiesterase activities. Fractions having no cGMP- but cAMP-metabolizing activity and showing disappearance of the metabolizing activity by 10 μM rolipram (a type IV phosphodiesterase selective inhibitor) were collected to be used as a stock solution for the examination of type IV phosphodiesterase inhibition activity.\n3) A predetermined amount of each compound to be tested was subjected to 10 minutes of reaction at 30° C. in a reaction mixture containing 40 mM Tris-HCl (pH 8.0), 5 mM MgCl2, 4 mM 2-mercaptoethanol, 0.3 μM cilostamide (an III type phosphodiesterase selective inhibitor), 1 μM cAMP, 10 nM ^3 H-cAMP and the type IV phosphodiesterase stock solution. The reaction solution was boiled at 90° C. for 1 minute, cooled in an ice bath, mixed with 1 unit of 5'-nucleotidase and then subjected to 10 minutes of reaction at 30° C., and the reaction was stopped by the addition of 1 ml of methanol. The reaction solution was passed through a Dowex 1×8 column to adsorb un-hydrolyzed material and then the radioactivity was measured.\n4) Concentration of each compound to be tested which inhibits 50% of the metabolic activity of type IV phosphodiesterase was calculated and expressed as IC50. Test results: Results of the measurement of the activity of the compounds of the present invention to inhibit type IV PDE are shown in Tables 1 and 2, together with the results of the compounds illustratively disclosed in the aforementioned U.S. Patent and similar comparative compounds which were separately synthesized."}, "[2]": {"system": "I, II, III and V type phosphodiesterase isozymes", "assay": "Activity to inhibit various phosphodiesterase isozymes (selectivity for type IV)", "assay_type": "biochemical, rat (types I, III); human (type V)", "conditions": "IC50 ratio vs types I", "from_the_text": "[A] In order to evaluate selectivity of the compounds of the present invention for type IV phosphodiesterase, I, II, III and V type phosphodiesterase isozymes were purified in the following manner.\n1) Solutions containing various phosphodiesterase (I, II and III types) isozymes were purified from rat heart muscle cells in the following manner. Under ether anesthesia, Wistar rat was subjected to thoracotomy to excise the heart. After removing blood by perfusion with physiological saline supplemented with heparin (1 unit/ml), the heart was finely chopped with scissors.\n2) Solutions containing various phosphodiesterase isozymes were obtained from the thus obtained soluble fraction in the following manner. […] Each fraction was checked for cAMP- and cGMP-metabolizing phosphodiesterase activities. […] These fractions were separately collected to be used as phosphodiesterase (types I, II and III) stock solutions for the examination of selectivity.\n3) A solution containing type V phosphodiesterase was prepared from peripheral blood of a healthy person in the following manner. A 200 ml portion of physiological saline supplemented with dextran (3%) was added to 500 ml of heparinized peripheral blood and incubated at 37° C. for 40 minutes to effect precipitation of erythrocytes. The supernatant fluid after precipitation of erythrocytes was recovered and centrifuged once, and the resulting precipitate was suspended in buffer B (140 mM NaCl, 5 mM KCl, 5 mM glucose and 10 mM HEPES, pH 7.4), overlaid on a solution for density gradient centrifugation use (Ficoll solution) and then centrifuged at room temperature for 40 minutes at 450×g, thereby separating monocyte fraction and granulocyte fraction.\nEach fraction was checked for cAMP- and cGMP-metabolizing phosphodiesterase activities. Fractions having only cGMP metabolizing activity were collected to be used as the type V phosphodiesterase stock solution.\n[B] Inhibitory activities were measured using the thus obtained stock solutions of various phosphodiesterase isozymes.\nAfter completion of the reaction, the reaction mixture was boiled at 90° C. for 1 minute, cooled in an ice bath, mixed with 1 unit of 5'-nucleotidase and then subjected to 10 minutes of reaction at 30° C., and the reaction was stopped by adding 1 ml of methanol. The reaction solution was passed through a Dowex 1×8 column to effect adsorption of un-metabolized cAMP or cGMP and then radioactivity in the eluate was measured using a scintillation counter."}, "[3]": {"conditions": "Table 2, read-out: Type IV PDE Inhibition IC50"}, "[4]": {"conditions": "Table 1, read-out: Type IV PDE inhibition activity IC50"}},
  "note": "Where two headings read alike, the source gives them in different places.",
  "data": [
    {"molecule": "CCn1c(=O)nc(-c2ccc(Cl)c(Cl)c2)c2cccnc21", "note": "[compound 5, 4-(3,-4-dichlorophenyl)-1-ethylpyrido[2,3-d]pyrimidin-2(1H)-one, reference compound]", "values": [
      {"measurement": "IC50", "setting": "[1]; [3]", "value": "> 3000", "unit": "nM"}
    ]},
    {"molecule": "CC(C)n1c(=O)nc(-c2cccc(Cl)c2)c2cccnc21", "note": "[compound 6, 4-(3-chlorophenyl)-1-isopropylpyrido[2,3-d]pyrimidin-2(1H)-one, reference compound]", "values": [
      {"measurement": "IC50", "setting": "[1]; [3]", "value": 803, "unit": "nM"}
    ]},
    {"molecule": "CCn1c(=O)nc(-c2cccc([N+](=O)[O-])c2)c2ccc(C)nc21", "note": "[Example 37, 1-Ethyl-7-methyl-4-(3-nitrophenyl)-pyrido[2;3-d]pyrimidin-2(1H)-one]", "values": [
      {"measurement": "IC50", "setting": "[1]; [4]", "value": 4.75, "unit": "nM"}
    ]},
    {"molecule": "CCn1c(=O)nc(-c2cccc(Cl)c2)c2ccc(C(C)SC(C)=O)nc21", "note": "(centres unmarked) [Example 40, 7-(1-acetylthioethyl)-4-(3-chlorophenyl)-1-ethylpyrido[2,3-d]pyrimidin-2(1H)-one]", "values": [
      {"measurement": "IC50", "setting": "[1]; [4]", "value": 5.79, "unit": "nM"}
    ]},
    {"molecule": "CC(C)n1c(=O)nc(-c2ccc(Cl)cc2)c2cccnc21", "note": "[compound 2, reference compound]", "values": [
      {"measurement": "IC50", "setting": "[1]; [3]", "value": "> 3000", "unit": "nM"}
    ]},
    {"molecule": "CCc1ccc2c(C3CCCCC3)nc(=O)n(CC)c2n1", "note": "[Example 34, 4-Cyclohexyl-1,7-diethylpyrido[2,3-d]pyrimidin-2(1H)-one]", "values": [
      {"measurement": "IC50", "setting": "[1]; [4]", "value": 1.47, "unit": "nM"}
    ]},
    {"molecule": "CCc1ccc2c(-c3cccc(Br)c3)nc(=O)n(CC)c2n1", "note": "[Example 2, 4-(3-Bromophenyl)-1,7-diethylpyrido[2,3-d)pyrimidin-2(1H)-one]", "values": [
      {"measurement": "IC50", "setting": "[1]; [3]", "value": 1.15, "unit": "nM"}
    ]},
    {"molecule": "CCn1c(=O)nc(-c2ccc(Cl)cc2)c2cccnc21", "note": "[compound 3, 4-(4-chlorophenyl)-1-ethylpyrido[2,3-d]pyrimidin-2(1H)-one, reference compound]", "values": [
      {"measurement": "IC50", "setting": "[1]; [3]", "value": "> 3000", "unit": "nM"}
    ]},
    {"molecule": "CCn1c(=O)nc(-c2cccc(C)c2)c2cccnc21", "note": "[compound 8, 4-(3-methylphenyl)-1-ethylpyrido[2,3-d]pyrimidin-2(1H)-one, reference compound]", "values": [
      {"measurement": "IC50", "setting": "[1]; [3]", "value": 612, "unit": "nM"}
    ]},
    {"molecule": "CCc1ccc2c(-c3cccc(Cl)c3)nc(=O)n(CC)c2n1", "note": "[Example 1, 4-(3-chlorophenyl)-1,7-diethylpyrido[2,3-d]pyrimidin-2(1H)-one]", "values": [
      {"measurement": "IC50", "setting": "[1]; [3]", "value": 0.81, "unit": "nM"},
      {"measurement": "selectivity in inhibition activity against type IV PDE over the other types of PDE", "setting": "[2]", "value": "≥ 1000", "unit": "times"}
    ]},
    {"molecule": "CCn1c(=O)nc(-c2cccc(Cl)c2)c2ccc(C3CC3)nc21", "note": "[Example 22, 4-(3-Chlorophenyl)-7-cyclopropyl-1-ethylpyrido[2,3-d]pyrimidin-2(1H)-one]", "values": [
      {"measurement": "IC50", "setting": "[1]; [4]", "value": 7.8, "unit": "nM"}
    ]},
    {"molecule": "CC(C)n1c(=O)nc(-c2ccc(Cl)c(Cl)c2)c2cccnc21", "note": "[compound 4, reference compound]", "values": [
      {"measurement": "IC50", "setting": "[1]; [3]", "value": "> 3000", "unit": "nM"}
    ]},
    {"molecule": "CCc1ccc2c(-c3cccc(Cl)c3)nc(=S)n(CC)c2n1", "note": "[Example 41, 4-(3-Chlorophenyl)-1,7-diethylpyrido[2,3-d]pyrimidin-2(1H)-thione]", "values": [
      {"measurement": "IC50", "setting": "[1]; [4]", "value": 0.85, "unit": "nM"}
    ]},
    {"molecule": "CCn1c(=O)nc(-c2ccccc2Cl)c2cccnc21", "note": "[compound 1, 4-(2-chlorophenyl)-1-ethylpyrido[2,3-d]pyrimidin-2(1H)-one, reference compound]", "values": [
      {"measurement": "IC50", "setting": "[1]; [3]", "value": 2840, "unit": "nM"}
    ]},
    {"molecule": "CCn1c(=O)nc(-c2cccc(Cl)c2)c2ccc(C(C)O)nc21", "note": "(centres unmarked) [Example 19, 4-(3-chlorophenyl)-1-ethyl-7-(1-hydroxyethyl)pyrido[2,3-d]pyrimidin-2(1H)-one]", "values": [
      {"measurement": "IC50", "setting": "[1]; [4]", "value": 8.08, "unit": "nM"},
      {"measurement": "selectivity in inhibition activity against type IV PDE over the other types of PDE", "setting": "[2]", "value": "≥ 1000", "unit": "times"}
    ]},
    {"molecule": "CCc1ccc2c(-c3cccc(C)c3)nc(=O)n(CC)c2n1", "note": "[Example 6, 1,7-Diethyl-4-(3-methylphenyl)pyrido[2,3-d]pyrimidin-2(1H)-one]", "values": [
      {"measurement": "IC50", "setting": "[1]; [3]", "value": 3.7, "unit": "nM"}
    ]},
    {"molecule": "CCn1c(=O)nc(-c2cccc(Cl)c2)c2ccc(C=NO)nc21", "note": "[Example 36, 4-(3-chlorophenyl)-1-ethyl-7-hydroxyiminomethylpyrido[2,3-d]pyrimidin-2(1H)-one]", "values": [
      {"measurement": "IC50", "setting": "[1]; [4]", "value": 0.93, "unit": "nM"}
    ]},
    {"molecule": "CCn1c(=O)nc(-c2cccc(Cl)c2)c2ccc(C)nc21", "note": "[Example 3, 4-(3-Chlorophenyl)-1-ethyl-7-methylpyrido[2,3-d]pyrimidin-2(1H)-one]", "values": [
      {"measurement": "IC50", "setting": "[1]; [3]", "value": 2.32, "unit": "nM"},
      {"measurement": "selectivity in inhibition activity against type IV PDE over the other types of PDE", "setting": "[2]", "value": "≥ 1000", "unit": "times"}
    ]},
    {"molecule": "CCn1c(=O)nc(-c2cccc(C)c2)c2ccc(C)nc21", "note": "[Example 5, 1-Ethyl-7-methyl-4-(3-methylphenyl)-pyrido[2,3-d]pyrimidin-(1H)-one]", "values": [
      {"measurement": "IC50", "setting": "[1]; [3]", "value": 3.5, "unit": "nM"}
    ]},
    {"molecule": "CCn1c(=O)nc(-c2cccc(Br)c2)c2ccc(C)nc21", "note": "[Example 4, 4-(3-Bromophenyl)-1-ethyl-7-methylpyrido[2,3-d]pyrimidin-2(1H)-one]", "values": [
      {"measurement": "IC50", "setting": "[1]; [3]", "value": 1.45, "unit": "nM"},
      {"measurement": "selectivity in inhibition activity against type IV PDE over the other types of PDE", "setting": "[2]", "value": "≥ 1000", "unit": "times"}
    ]},
    {"molecule": "CCn1c(=O)nc(-c2cccc(Cl)c2)c2cccnc21", "note": "[compound 7, 4-(3-chlorophenyl)-1-ethylpyrido[2,3-d]pyrimidin-2(1H)-one, reference compound]", "values": [
      {"measurement": "IC50", "setting": "[1]; [3]", "value": 308, "unit": "nM"}
    ]},
    {"molecule": "Cc1cccc(-c2nc(=O)n(CC3CC3)c3nc(C)ccc23)c1", "note": "[Example 33, 1-Cyclopropylmethyl-7-methyl-4-(3-methylphenyl)pyrido[2,3-d]pyrimidin-2(1H)-one]", "values": [
      {"measurement": "IC50", "setting": "[1]; [4]", "value": 6.19, "unit": "nM"}
    ]}
  ]
}
